Measurements: patent US8470841B2, “Heterocyclic compounds, processes for their preparation, medicaments comprising these compounds, and the use thereof” (Sanofi, priority 2008, dated 2013)
Like-named read-outs stand apart in the source and are kept apart here.

Experiments:
[1] = biological target: human ACC2 (Homo sapiens (Human), UniProt O00763); format: biochemical; details: for IC50: human ACC2, read-out: IC50 (hACC2)
[2] = biological target: rACC1 (Rattus norvegicus (Rat), UniProt P11497); assay: Enzymatic assay of ACC inhibitors, rat ACC1; format: biochemical
Protocol: The enzymatic activity of ACC and its inhibition by test substances were determined by a luminometric assay. The reaction mixture contained 50 mM tris acetate (Merck, #1.08382.1000), pH 7.5, 250 μM acetyl coenzyme A (Sigma, #A2181),16 mM NaHCO3 (Merck, #1.06329.0500), 0.9 mg/ml bovine serum albumin (Sigma, #A8806), 25 μM ATP (Sigma, #A7699), 1.1 μM β-mercaptoethanol (Roth, #4227,1), 4.3 mM magnesium acetate ((Merck, #1.05819.0250), 10 mM sodium citrate (Merck, #1.06448.0500) and 200-400 ng of the ACC preparations. The mixture also contained a test compound. The test compounds were each dissolved in 10 mM DMSO and were assayed at final concentrations of 0 μM, 0.01 μM, 0.03 μM, 0.1 μM, 0.3 μM, 1 μM, 3 μM, 10 μM, 30 μM and 100 μM. The final concentration of the DMSO in the assay was 0.1% (v/v). The reaction was started by adding ACC and was carried out at 37° C. for 90 min. The reaction was then stopped by adding 150 μl of 0.5 M tris acetate. […] After incubation for 10 min, the luminescence was measured in a luminometer (Tecan Genios Pro).
The crude luminescence data were transferred into a Microsoft Excel file. The luminescence measured in the absence of ACC in the reaction mixture was defined as 100%. […] Dose-effect plots were calculated with the XL.Fit program as specified by the producer (IDBS). […]

[3] = biological target: rACC2 (Rattus norvegicus, UniProt O70151); assay: Enzymatic assay of ACC inhibitors, rat ACC2; format: biochemical
Protocol: The enzymatic activity of ACC and its inhibition by test substances were determined by a luminometric assay. The reaction mixture contained 50 mM tris acetate (Merck, #1.08382.1000), pH 7.5, 250 μM acetyl coenzyme A (Sigma, #A2181),16 mM NaHCO3 (Merck, #1.06329.0500), 0.9 mg/ml bovine serum albumin (Sigma, #A8806), 25 μM ATP (Sigma, #A7699), 1.1 μM β-mercaptoethanol (Roth, #4227,1), 4.3 mM magnesium acetate ((Merck, #1.05819.0250), 10 mM sodium citrate (Merck, #1.06448.0500) and 200-400 ng of the ACC preparations. The mixture also contained a test compound. The test compounds were each dissolved in 10 mM DMSO and were assayed at final concentrations of 0 μM, 0.01 μM, 0.03 μM, 0.1 μM, 0.3 μM, 1 μM, 3 μM, 10 μM, 30 μM and 100 μM. The final concentration of the DMSO in the assay was 0.1% (v/v). The reaction was started by adding ACC and was carried out at 37° C. for 90 min. The reaction was then stopped by adding 150 μl of 0.5 M tris acetate. 10 μl of the mixture were removed and mixed with 90 μl of ATP monitoring reagent (Cambrex, #LT27-002). After incubation for 10 min, the luminescence was measured in a luminometer (Tecan Genios Pro).
The crude luminescence data were transferred into a Microsoft Excel file. The luminescence measured in the absence of ACC in the reaction mixture was defined as 100%. The value in the presence of ACC with 0 μM test compound was set at 0%. Dose-effect plots were calculated with the XL.Fit program as specified by the producer (IDBS). The IC50 of a test substance was the concentration of the test compound at which a luminescence of 50% was measured.

[4] = tested on: C2C12 mouse muscle cell line; assay: Palmitate oxidation in a mouse muscle cell line (C2C12); format: cell-based; details: 10 μM
Protocol: In another pharmacological test both compounds were tested for palmitate oxidation in a mouse muscle cell line (C2C12) which is also mediated by ACC inhibition.

[5] = biological target: human ACC1 (Homo sapiens (Human), UniProt Q13085)
[6] = relative to comparative example 59, respective rat ACC isoforms
[7] = relative to comparative example 59

Chain of rACC2 (O70151 1-2456): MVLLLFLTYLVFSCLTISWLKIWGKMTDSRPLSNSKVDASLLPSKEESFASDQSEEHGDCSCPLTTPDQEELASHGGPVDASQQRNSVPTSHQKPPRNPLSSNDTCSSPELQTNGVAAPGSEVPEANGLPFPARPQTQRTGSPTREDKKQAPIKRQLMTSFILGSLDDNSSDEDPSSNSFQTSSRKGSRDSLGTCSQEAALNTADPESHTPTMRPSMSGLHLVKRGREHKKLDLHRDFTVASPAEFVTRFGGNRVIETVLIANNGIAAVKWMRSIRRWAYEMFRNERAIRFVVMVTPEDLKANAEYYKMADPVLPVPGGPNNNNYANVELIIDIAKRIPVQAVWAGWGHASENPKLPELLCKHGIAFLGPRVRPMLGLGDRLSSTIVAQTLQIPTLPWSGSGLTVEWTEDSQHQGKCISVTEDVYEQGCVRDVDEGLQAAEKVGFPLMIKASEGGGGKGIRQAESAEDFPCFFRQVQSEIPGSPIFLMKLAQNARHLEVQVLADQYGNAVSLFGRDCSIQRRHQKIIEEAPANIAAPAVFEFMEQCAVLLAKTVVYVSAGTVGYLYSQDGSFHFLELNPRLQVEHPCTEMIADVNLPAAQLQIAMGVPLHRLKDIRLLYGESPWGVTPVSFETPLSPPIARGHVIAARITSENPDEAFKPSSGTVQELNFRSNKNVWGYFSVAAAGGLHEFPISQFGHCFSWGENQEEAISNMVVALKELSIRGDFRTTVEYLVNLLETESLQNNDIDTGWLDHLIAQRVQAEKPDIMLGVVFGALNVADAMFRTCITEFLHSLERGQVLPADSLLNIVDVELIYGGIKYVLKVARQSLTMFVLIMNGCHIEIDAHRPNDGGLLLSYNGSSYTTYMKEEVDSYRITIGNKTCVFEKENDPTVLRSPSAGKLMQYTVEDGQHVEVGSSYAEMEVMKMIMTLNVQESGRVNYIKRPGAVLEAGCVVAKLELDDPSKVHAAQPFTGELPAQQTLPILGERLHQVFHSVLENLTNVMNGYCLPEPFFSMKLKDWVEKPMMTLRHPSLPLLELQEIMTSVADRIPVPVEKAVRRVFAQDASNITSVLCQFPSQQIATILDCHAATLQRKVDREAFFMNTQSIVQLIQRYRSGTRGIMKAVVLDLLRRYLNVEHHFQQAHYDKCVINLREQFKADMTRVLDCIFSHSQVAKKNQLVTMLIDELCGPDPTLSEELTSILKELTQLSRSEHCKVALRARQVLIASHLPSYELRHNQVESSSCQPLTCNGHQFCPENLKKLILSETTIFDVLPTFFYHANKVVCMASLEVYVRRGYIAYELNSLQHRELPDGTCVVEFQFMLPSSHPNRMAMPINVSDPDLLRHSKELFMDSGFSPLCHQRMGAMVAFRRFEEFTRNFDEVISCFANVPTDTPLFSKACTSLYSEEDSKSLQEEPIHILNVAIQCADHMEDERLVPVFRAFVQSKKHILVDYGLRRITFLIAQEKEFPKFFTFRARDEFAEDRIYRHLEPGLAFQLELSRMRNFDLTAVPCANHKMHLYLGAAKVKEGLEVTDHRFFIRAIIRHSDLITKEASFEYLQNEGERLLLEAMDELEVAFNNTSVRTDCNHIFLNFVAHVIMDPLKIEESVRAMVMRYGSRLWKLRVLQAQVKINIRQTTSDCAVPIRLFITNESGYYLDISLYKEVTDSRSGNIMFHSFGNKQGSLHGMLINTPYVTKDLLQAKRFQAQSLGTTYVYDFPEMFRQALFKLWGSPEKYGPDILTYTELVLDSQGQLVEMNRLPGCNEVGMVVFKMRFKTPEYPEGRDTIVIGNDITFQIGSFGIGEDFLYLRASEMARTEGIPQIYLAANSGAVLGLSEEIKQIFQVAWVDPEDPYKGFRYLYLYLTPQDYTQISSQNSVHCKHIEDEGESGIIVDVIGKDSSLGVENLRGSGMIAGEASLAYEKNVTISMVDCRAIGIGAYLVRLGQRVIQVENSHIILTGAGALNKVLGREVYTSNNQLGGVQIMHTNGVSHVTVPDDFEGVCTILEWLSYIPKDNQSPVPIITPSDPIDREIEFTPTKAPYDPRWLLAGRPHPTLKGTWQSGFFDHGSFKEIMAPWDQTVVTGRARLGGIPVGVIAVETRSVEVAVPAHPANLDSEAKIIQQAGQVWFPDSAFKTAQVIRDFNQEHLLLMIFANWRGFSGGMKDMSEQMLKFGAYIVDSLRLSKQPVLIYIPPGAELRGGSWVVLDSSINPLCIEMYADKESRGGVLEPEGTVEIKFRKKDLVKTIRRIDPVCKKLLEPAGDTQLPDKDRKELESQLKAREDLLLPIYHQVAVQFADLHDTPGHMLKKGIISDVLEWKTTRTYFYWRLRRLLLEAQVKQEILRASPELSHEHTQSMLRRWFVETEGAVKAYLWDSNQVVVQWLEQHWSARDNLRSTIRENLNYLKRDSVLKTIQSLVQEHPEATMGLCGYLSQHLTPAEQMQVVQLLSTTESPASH
Chain of human ACC2 (O00763 151-2458): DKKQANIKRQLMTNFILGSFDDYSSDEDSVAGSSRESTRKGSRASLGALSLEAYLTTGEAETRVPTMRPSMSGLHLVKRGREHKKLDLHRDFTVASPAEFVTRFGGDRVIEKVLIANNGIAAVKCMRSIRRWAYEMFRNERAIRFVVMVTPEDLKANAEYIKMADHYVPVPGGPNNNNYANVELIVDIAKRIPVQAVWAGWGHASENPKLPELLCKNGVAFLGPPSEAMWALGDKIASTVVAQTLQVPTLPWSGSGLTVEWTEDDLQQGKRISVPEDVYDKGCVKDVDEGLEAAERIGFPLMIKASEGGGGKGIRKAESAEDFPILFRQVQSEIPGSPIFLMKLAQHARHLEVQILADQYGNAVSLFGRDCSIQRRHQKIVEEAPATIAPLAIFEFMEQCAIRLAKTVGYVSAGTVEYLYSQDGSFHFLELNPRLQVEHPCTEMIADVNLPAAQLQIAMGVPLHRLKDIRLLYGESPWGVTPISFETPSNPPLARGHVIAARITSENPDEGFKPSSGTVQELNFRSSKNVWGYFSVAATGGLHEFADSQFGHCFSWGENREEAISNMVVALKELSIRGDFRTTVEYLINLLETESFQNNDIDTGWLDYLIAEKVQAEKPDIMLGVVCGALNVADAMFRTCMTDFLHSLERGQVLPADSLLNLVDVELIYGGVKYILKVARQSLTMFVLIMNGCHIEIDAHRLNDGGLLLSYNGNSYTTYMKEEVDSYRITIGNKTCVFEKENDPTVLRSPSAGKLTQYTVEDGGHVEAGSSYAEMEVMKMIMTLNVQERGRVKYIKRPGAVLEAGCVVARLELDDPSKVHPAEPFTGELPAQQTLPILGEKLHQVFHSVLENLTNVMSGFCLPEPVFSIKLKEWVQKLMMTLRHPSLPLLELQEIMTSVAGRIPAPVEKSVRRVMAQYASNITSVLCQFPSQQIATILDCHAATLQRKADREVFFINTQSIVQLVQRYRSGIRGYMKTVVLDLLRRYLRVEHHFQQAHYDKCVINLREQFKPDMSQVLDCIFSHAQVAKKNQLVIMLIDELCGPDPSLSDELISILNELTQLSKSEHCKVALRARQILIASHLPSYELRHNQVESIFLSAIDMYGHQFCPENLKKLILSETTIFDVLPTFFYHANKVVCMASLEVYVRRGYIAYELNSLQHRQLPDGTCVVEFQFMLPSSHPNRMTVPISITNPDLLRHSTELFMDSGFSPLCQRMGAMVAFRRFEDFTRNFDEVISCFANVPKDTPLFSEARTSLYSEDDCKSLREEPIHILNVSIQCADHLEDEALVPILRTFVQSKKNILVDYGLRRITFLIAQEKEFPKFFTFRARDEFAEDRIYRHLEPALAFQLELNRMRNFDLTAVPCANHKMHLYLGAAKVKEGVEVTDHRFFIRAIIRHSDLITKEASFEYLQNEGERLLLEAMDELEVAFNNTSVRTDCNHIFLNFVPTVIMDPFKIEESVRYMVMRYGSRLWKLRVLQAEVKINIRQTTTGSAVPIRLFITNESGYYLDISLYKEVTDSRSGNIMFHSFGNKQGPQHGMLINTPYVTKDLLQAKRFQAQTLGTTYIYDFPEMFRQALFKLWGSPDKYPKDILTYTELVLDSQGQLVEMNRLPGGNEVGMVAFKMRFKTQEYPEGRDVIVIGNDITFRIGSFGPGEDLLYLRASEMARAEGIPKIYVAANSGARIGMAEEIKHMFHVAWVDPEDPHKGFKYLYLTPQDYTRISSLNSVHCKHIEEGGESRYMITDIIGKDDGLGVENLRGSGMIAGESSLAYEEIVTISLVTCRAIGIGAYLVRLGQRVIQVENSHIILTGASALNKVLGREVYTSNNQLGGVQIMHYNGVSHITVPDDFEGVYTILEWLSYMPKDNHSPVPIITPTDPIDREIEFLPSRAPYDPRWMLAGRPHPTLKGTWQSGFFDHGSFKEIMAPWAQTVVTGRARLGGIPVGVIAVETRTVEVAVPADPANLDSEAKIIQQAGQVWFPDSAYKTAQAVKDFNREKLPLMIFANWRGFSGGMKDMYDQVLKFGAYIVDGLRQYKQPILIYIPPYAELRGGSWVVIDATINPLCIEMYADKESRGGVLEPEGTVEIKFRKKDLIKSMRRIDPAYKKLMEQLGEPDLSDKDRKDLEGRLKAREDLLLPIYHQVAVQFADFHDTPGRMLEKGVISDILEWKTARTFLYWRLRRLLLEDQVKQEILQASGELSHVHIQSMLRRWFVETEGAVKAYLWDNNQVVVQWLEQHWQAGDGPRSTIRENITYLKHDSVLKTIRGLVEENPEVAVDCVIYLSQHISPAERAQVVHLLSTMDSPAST

Row | SMILES | IC50 [1] | other results
1 | CC(=O)NCCC[C@H]1OC[C@H](Oc2ncc(OC(C)C)cc2Cl)CO1 [Example 25, trans-N-{3-[5-(3-chloro-5-isopropoxypyridin-2-yloxy)-[1,3]dioxan-2-yl]propyl}acetamide] | 380 nM | –
2 | CC(=O)NC(C)CCC1CCC(Oc2ccc(OC(C)C)nc2)CC1 (centres unmarked) [Example 52, N-{3-[4-(6-Isopropoxypyridin-3-yloxy)cyclohexyl]-1-methylpropyl}acetamide] | 80 nM | –
3 | CC(=O)N[C@@H](C)CCc1ccc(Oc2ccc(OC(C)C)nc2)cc1 [Example 35, N—{(S)-3-[4-(6-Isopropoxypyridin-3-yloxy)phenyl]-1-methylpropyl}acetamide] | 30 nM | IC50 ([2]; rat ACC1): 170 nM; times higher potency than example 59, rat ACC1 [2, 6]: > 3 times; IC50 ([3]; rat ACC2, read-out: IC50 rACC2): 400 nM; times higher potency than example 59, rat ACC2 [3, 6]: > 3 times; times higher potency than example 59, human ACC2 [1, 7]: approx. 5 times; stimulation of cellular fat (palmitate) oxidation [4]: 1.7 fold; IC50 ([5]; read-out: IC50 hACC (human ACC1), human ACC1, table row printed as hACC): 190 nM; times higher potency than example 59, human ACC1 [5, 7]: ~40 times
4 | COC(=O)NC(C)CCc1ccc(Oc2ccc(OC(C)C)nc2)cc1 (centres unmarked) [Example 46, Methyl {3-[4-(6-isopropoxypyridin-3-yloxy)phenyl]-1-methylpropyl}carbamate] | 210 nM | –
5 | CC(=O)NCCC[C@H]1OC[C@H](Oc2ccc(OC3CCCC3)cc2)CO1 [Example 6, trans-N-{3-[5-(4-Cyclopentyloxyphenoxy)-[1,3]dioxan-2-yl]propyl}acetamide] | 200 nM | –
6 | CC(=O)NCCC[C@H]1OC[C@H](Oc2ccc(OCc3ccccc3)cn2)CO1 [Example 17, trans-N-{3-[5-(5-benzyloxypyridin-2-yloxy)-[1,3]dioxan-2-yl]propyl}acetamide] | 50 nM | –
7 | CC(CCc1ccc(Oc2ccc(OC(C)C)nc2)cc1)NC(N)=O (centres unmarked) [Example 47, {3-[4-(6-Isopropoxypyridin-3-yloxy)phenyl]-1-methylpropyl}urea] | 150 nM | –
8 | CC(=O)NC(C)CCc1ccc(Oc2ncc(OC(C)C)cc2Cl)cc1 (centres unmarked) [Example 32, N-{3-[4-(3-Chloro-5-isopropoxypyridin-2-yloxy)phenyl]-1-methylpropyl}acetamide] | 1300 nM | –
9 | CC(CCc1ccc(Oc2ccc(OC(C)C)nc2)cc1)NC=O (centres unmarked) [Example 45, N-{3-[4-(6-Isopropoxypyridin-3-yloxy)phenyl]-1-methylpropyl}formamide] | 670 nM | –
10 | CC(=O)NC(C)CCc1ccc(Oc2ccc(OCc3ccccc3)cn2)cc1 (centres unmarked) [Example 9, N-{3-[4-(5-Benzyloxypyridin-2-yloxy)phenyl]-1-methylpropyl}acetamide] | 140 nM | –
11 | CC(=O)NC(C)CCc1ccc(Oc2cnc(OC(C)C)nc2)cc1 (centres unmarked) [Example 40, N-{3-[4-(2-Isopropoxypyrimidin-5-yloxy)phenyl]-1-methylpropyl}acetamide] | 740 nM | –
12 | CC(=O)NC(C)CCc1ccc(Oc2cnc(OC(C)C)cn2)cc1 (centres unmarked) [Example 49, N-{3-[4-(5-Isopropoxypyrazin-2-yloxy)phenyl]-1-methylpropyl}acetamide] | 1200 nM | –
13 | CC(=O)NC(C)CCc1ccc(Oc2ccc(OCC3CC3)nc2)cc1 (centres unmarked) [Example 50, N-{3-[4-(6-Cyclopropylmethoxypyridin-3-yloxy)phenyl]-1-methylpropyl}acetamide] | 170 nM | –
14 | CC(=O)NC(C)CCc1ccc(Oc2ccc(OC3CCCC3)cn2)cc1 (centres unmarked) [Example 2, N-{3-[4-(5-Cyclopentyloxypyridin-2-yloxy)phenyl]-1-methylpropyl}acetamide] | 140 nM | –
15 | CC(=O)N[C@@H](C)COc1ccc(Oc2ccc(OC(C)C)cn2)cc1 [Example 29, N—{(S)-2-[4-(5-Isopropoxypyridin-2-yloxy)phenoxy]-1-methylethyl}acetamide] | 1200 nM | –
16 | CC(CCc1ccc(Oc2ccc(OC(C)C)nc2)cc1)NC(=O)CO (centres unmarked) [Example 48, 2-Hydroxy-N-{3-[4-(6-isopropoxypyridin-3-yloxy)phenyl]-1-methylpropyl}acetamide] | 900 nM | –
17 | CC(=O)NCCC[C@H]1OC[C@H](Oc2ccc(OCc3ccccc3)cc2)CO1 [Example 4, trans-N-{3-[5-(4-benzyloxyphenoxy)-[1,3]dioxan-2-yl]propyl}acetamide] | 400 nM | –
18 | CC(=O)NC(C)CCc1ccc(Oc2ccc(OC3CCOC3)cn2)cc1 (centres unmarked) [Example 20, N-(1-Methyl-3-{4-[5-(tetrahydrofuran-3-yloxy)pyridin-2-yloxy]phenyl}propyl)acetamide] | 3600 nM | –
19 | CC(=O)NCCC[C@H]1OC[C@H](Oc2ccc(OC(C)C)cn2)CO1 [Example 23, trans-N-{3-[5-(5-isopropoxypyridin-2-yloxy)-[1,3]dioxan-2-yl]-propyl}acetamide] | 2000 nM | –
20 | CC(=O)N[C@@H](C)CCc1ccc(Oc2ccc(OCc3ccccc3)cn2)cc1 [Example 19, N—{(S)-3-[4-(5-Benzyloxypyridin-2-yloxy)phenyl]-1-methylpropyl}acetamide] | 100 nM | –
21 | CC(=O)N[C@@H](C)COc1ccc(Oc2ccc(OC(C)C)cc2)nc1 [Example 39, N—{(S)-2-[6-(4-Isopropoxyphenoxy)pyridin-3-yloxy]-1-methylethyl}acetamide] | 2500 nM | –
22 | CC(=O)NC(C)CCc1ccc(Oc2ccc(OC(C)C)nc2)cc1 (centres unmarked) [Example 33, N-{3-[4-(6-Isopropoxypyridin-3-yloxy)phenyl]-1-methylpropyl}acetamide] | 60 nM | –
23 | CC(=O)NC(C)CCc1ccc(Oc2ccc(OCc3ccccc3)nc2)cc1 (centres unmarked) [Example 36, N-{3-[4-(6-Benzyloxypyridin-3-yloxy)phenyl]-1-methylpropyl}acetamide] | 70 nM | –
24 | CC(=O)N[C@@H](C)COc1ccc(Oc2ccc(OC(C)C)cc2)cc1 [Example 59, N—{(S)-2-[4-(4-Isopropoxyphenoxy)phenoxy]-1-methylethyl}acetamide, reference compound] | – | IC50 [3]: 1500 nM; stimulation of cellular fat (palmitate) oxidation [4]: no effect
25 | CC(CCc1ccc(Oc2ccc(OC(C)C)nc2)cc1)NC(=O)C1CC1 (centres unmarked) [Example 44, N-{3-[4-(6-Isopropoxypyridin-3-yloxy)phenyl]-1-methylpropyl}cyclopropanecarboxamide] | 90 nM | –
26 | CCCOc1ccc(Oc2ccc(CCC(C)NC(C)=O)cc2)nc1 (centres unmarked) [Example 11, N-{1-Methyl-3-[4-(5-propoxypyridin-2-yloxy)phenyl]propyl}acetamide] | 140 nM | –
27 | CC(=O)NC(C)COc1ccc(Oc2ccc(OC(C)C)cn2)cc1 (centres unmarked) [Example 27, N-{2-[4-(5-Isopropoxypyridin-2-yloxy)phenoxy]-1-methylethyl}acetamide] | 1300 nM | –
28 | CC(=O)NC(C)CCc1ccc(Oc2ccc(OCC3CCC3)cn2)cc1 (centres unmarked) [Example 12, N-{3-[4-(5-Cyclobutylmethoxypyridin-2-yloxy)phenyl]-1-methylpropyl}acetamide] | 50 nM | –
29 | CC(=O)NC(C)CCc1cnc(Oc2ccc(OCc3ccccc3)nc2)nc1 (centres unmarked) [Example 37, N-{3-[2-(6-Benzyloxypyridin-3-yloxy)pyrimidin-5-yl]-1-methylpropyl}acetamide] | 5900 nM | –
